One block for each compound: values may come before it.
Tests used:
Coagulation factor XII [1] = target: T1, Coagulation factor XII (Homo sapiens, UniProt P00748); assay: Inhibition of human factor 12a
T1 sequence (P00748 whole entry): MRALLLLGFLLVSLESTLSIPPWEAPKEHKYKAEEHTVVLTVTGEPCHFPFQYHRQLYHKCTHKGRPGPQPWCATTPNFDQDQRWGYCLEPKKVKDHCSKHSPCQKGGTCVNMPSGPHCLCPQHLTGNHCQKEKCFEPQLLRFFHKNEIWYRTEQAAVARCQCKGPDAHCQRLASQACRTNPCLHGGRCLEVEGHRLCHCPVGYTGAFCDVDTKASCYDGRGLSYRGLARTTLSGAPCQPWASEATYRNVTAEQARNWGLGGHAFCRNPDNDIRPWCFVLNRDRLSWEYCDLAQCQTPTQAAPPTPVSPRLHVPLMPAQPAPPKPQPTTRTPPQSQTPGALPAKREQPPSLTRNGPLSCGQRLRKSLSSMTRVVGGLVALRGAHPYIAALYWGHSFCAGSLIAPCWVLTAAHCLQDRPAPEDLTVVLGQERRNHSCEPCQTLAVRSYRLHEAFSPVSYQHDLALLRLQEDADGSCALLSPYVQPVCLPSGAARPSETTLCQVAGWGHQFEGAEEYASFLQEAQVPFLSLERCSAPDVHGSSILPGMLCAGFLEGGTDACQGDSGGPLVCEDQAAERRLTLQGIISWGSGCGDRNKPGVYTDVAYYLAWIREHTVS

Coagulation factor XII [2] = target: T1, Coagulation factor XII; assay: Inhibition of human factor 12a using H-D-Pro-Phe-Arg-pNa as substrate by spectrophotometric method
Trypsin [3] = target: T2, Trypsin (Homo sapiens, UniProt P07477+P07478+P35030); assay: Inhibition of trypsin (unknown origin); type: protein assay
Coagulation factor XII [4] = target: T1, Coagulation factor XII; assay: Inhibition of factor 12a (unknown origin)
[5] = Inhibition of bovine trypsin using BAEE as substrate by Lineweaver-Burk analysis; set-up: species or system Bos taurus
[6] = Inhibition of bovine trypsin using chromogenic substrate by Lineweaver-Burk analysis; set-up: species or system Bos taurus
Coagulation factor XII [7] = target: T1, Coagulation factor XII; assay: Inhibition of human factor 12a using chromogenic substrate by Lineweaver-Burk analysis
Coagulation factor XII [8] = target: T1, Coagulation factor XII; assay: Non-competitive inhibition of factor 12a (unknown origin) using BQGR as substrate
Trypsin [9] = target: T2, Trypsin; assay: Competitive inhibition of trypsin (unknown origin) using BFSR as substrate; type: protein assay

SMILES: N=C(N)Nc1ccc(OC(=O)c2cc3cc(CCl)ccc3oc2=O)cc1
- IC50 (Coagulation factor XII [1]): 6 µM

SMILES: Cc1ccc2oc(=O)c(C(=O)Nc3ccc(N)cc3)cc2c1
- IC50 (Coagulation factor XII [4]): 14 µM

SMILES: N=C(N)Nc1ccc(NC(=O)c2cc3cc(Cl)cc(Br)c3oc2=O)cc1
- IC50 (Coagulation factor XII [1]): 102 µM

SMILES: Cc1ccc2oc(=O)c(C(=O)Nc3ccc(NC(=N)N)cc3)cc2c1
- IC50 (Coagulation factor XII [1]): 150 µM

SMILES: N=C(N)Nc1ccc(C(=O)Oc2ccc3cc(C(=N)N)ccc3c2)cc1 [NAFAMOSTAT]
- Ki [6]: 0.016 µM
- Ki (Coagulation factor XII [7]): 0.105 µM

SMILES: N=C(N)c1ccc2cc(OC(=O)c3ccc(NC4=NCCN4)cc3)ccc2c1 [SEPIMOSTAT]
- Ki (Coagulation factor XII [8]): 0.021 µM
- Ki (Trypsin [9]): 0.097 µM

Now from value to compound:

- Ki (Coagulation factor XII [2]): 0.23 µM
SMILES: N=C(N)NCCC[C@H](NC(=O)[C@@H]1CCCN1C(=O)[C@H](N)Cc1ccccc1)C(=O)CCl

- Ki (Trypsin [3]): 0.8 µM
SMILES: N=C(N)NCCCCCC(=O)Oc1ccccc1

- Ki (Trypsin [3]): 20 µM
SMILES: CCCCCCOC(=O)CCCCCNC(=N)N

- Ki [5]: 58.7 µM
SMILES: CCCCCCOC(=O)CCCCCN

- Ki [6]: 0.072 µM
- Ki (Coagulation factor XII [7]): 2.92 µM
SMILES: CCOC(=O)c1ccc(OC(=O)CCCCCNC(=N)N)cc1 [GABEXATE]
